Columns and labels:
YFP-CFBE cells = assay: YFP fluorescence plate reader assay of anion transport in YFP-CFBE cells; assay type: cell-based; conditions: for anion transport in YFP-CFBE cells (in words) / concentration–response relationship in YFP-CFBE compared with YFP-FRT cells: 1–50 μM; for anionophore concentration matching the effect of UTP (1 mM): anion transport equivalent to CaCC activation, YFP-CFBE cells; for effect of CaCC activation on anionophore-mediated anion transport: anionophore 50 μM with UTP 1 mM; for effect of CaCCinh-A01 on transport by anionophore: anionophore 50 μM, CaCCinh-A01 10 μM
Source text: To begin to test anionophores in CF airway epithelial cells, we utilised the CF bronchial epithelial cell line CFBE41o^– engineered to express YFP-H148Q/I152L (YFP-CFBE cells).[34],[35] One advantage of using YFP-CFBE cells is that they endogenously express the Ca^2+-activated Cl^– channel (CaCC), unlike YFP-FRT cells.[33] Thus, using YFP-CFBE cells, we directly compared anion transport by anionophores with that of the CaCC, an alternative pathway to restore anion transport in CF.[13]
(§1) FRT cells stably expressing the halide sensor YFP-H148Q/I152L6 were generous gifts of AS Verkman (University of California, San Francisco), while CFBE41o- cells7 stably expressing YFP (YFP-CFBE cells) were a generous gift of LJV Galietta (Telethon Institute for Genetics and Medicine). YFP-FRT cells were cultured as described previously for FRT cells8 except that media contained 10% fetal bovine serum, 2 mM L-glutamine and the selection agent G418 (YFP-FRT cells, 0.5 mg ml-1; WT-CFTR-YFP-FRT cells, 0.75 mg ml-1) or zeocin (F508del-CFTR-YFP-FRT cells, 0.5 mg ml-1). YFP-CFBE cells were cultured in minimal essential medium (MEM) supplemented with 10% fetal bovine serum, 2 mM L-glutamine, 100 U ml-1 penicillin and […] streptomycin. All cells were incubated at 37 °C in a humidified atmosphere with 5% CO2.
For fluorescence microplate reader studies, cells were seeded in 96-well plates and grown in culture media at 37 °C in a humidified atmosphere with 5% CO2 for 3 – 4 days until […]
90% confluent. […]
(§2) Fluorescence plate reader assay […]
quenching of YFP fluorescence at 37 °C using a microplate reader following the method of Galietta et al..9 The microplate reader (model: FLUORstar Omega; BMG LABTECH Ltd., Aylesbury, UK) was equipped with a syringe pump and excitation (500 ± 10 nm) and emission (535 ± 15 nm) filters (Chroma Technology GmbH, Olching, Germany). After washing cells twice with PBS (composition (mM): 137 NaCl, 2.7 KCl, 8.1 Na2HPO4, 1.5 KH2PO4, 1 CaCl2 and 0.5 MgCl2, pH 7.40), cells were incubated with test anionophores (1 – 50 µM) or the vehicle (DMSO [0.1 – 0.5% v v-1]) in 40 µl of PBS for 10 – 120 minutes according to the experimental design. Other compounds, including forskolin, ivacaftor and channel inhibitors were added to […]
(§3) the PBS bathing cells 10 minutes prior to PBS iodide addition, whereas UTP was added to cells with the PBS iodide solution. Fluorescence was measured for 14 seconds; 2 seconds before and 12 seconds after injection of 110 µl PBS iodide solution (137 mM Cl- replaced by I-) into each well (to obtain a final concentration of I- of 100 mM).
We expressed cell fluorescence values (F) relative to the fluorescence value immediately before I- injection (F0), excluding the initial decrease, which likely represents the quenching of extracellular YFP released from cells and signal reduction accompanying the increase in solution volume bathing cells. To quantify anion transport by test anionophores, we determined the initial slope of the fluorescence decay following I - addition by fitting first order exponential functions to the last 12 seconds of each fluorescence recording. In each experim ent, n values represent the mean of two replicates and all treatments were tested at least three times using different microplates. […]
FRT cells was selected and the cells were perfused with (i) PBS for 5 minutes then (ii) PBS containing I- (10 mM) (made by preparing PBS with 127 mM NaCl to maintain osmolarity) for 5 minutes and finally (iii) PBS for 30 minutes to remove thoroughly I- from the perfusion chamber. YFP-FRT cells were repeatedly treated with I- (10 mM) and then washed with PBS […]
During all interventions, the rate of solution perfusion was 8 – 10 ml min-1; temperature was 37 °C and except for the first 15 minutes of PBS washing, no data were collected between cycles of I- perfusion and PBS […]
For cell fluorescence measurements, we used the Volocity (Improvision) data acquisition and analysis system and a cooled CCD camera (Hamamatsu ORCA ER firewall) […]

WT-CFTR-YFP-FRT cells = assay: Anionophore anion transport in WT-CFTR-YFP-FRT cells; assay type: cell-based, Fischer rat; conditions: anionophore 50 μM, CFTRinh-172 10 μM
Source text: Next, we sought to learn whether the activities of 11, 12, 15, and 19 are additive to that of CFTR. For these studies, we used FRT cells co-expressing wild-type human CFTR and YFP-H148Q/I152L (WT-CFTR-YFP-FRT cells).[28] […] This latter effect is difficult to explain and merits further investigation.
as §1, with “All cells were incubated at 37 °C in a humidified atmosphere with 5% CO2.” left out
as §2
quenching of YFP fluorescence at 37 °C using a microplate reader following the method of Galietta et al..9 The microplate reader (model: FLUORstar Omega; BMG LABTECH Ltd., Aylesbury, UK) was equipped with a syringe pump and excitation (500 ± 10 nm) and emission (535 ± 15 nm) filters (Chroma Technology GmbH, Olching, Germany). […]
as §3
We expressed cell fluorescence values (F) relative to the fluorescence value immediately before I- injection (F0), excluding the initial decrease, which likely represents the quenching of extracellular YFP released from cells and signal reduction accompanying the increase in solution volume bathing cells. […]

[1] = design: method as in ref [16 and 25], [20], [21], [22], [23], [24], [29] (Reference column); conditions: 1H NMR titrations with Bu4N^+Cl^– in DMSO-d6/H2O (200 : 1) at 298 K; ref [16 and 25], [20], [21], [22], [23], [24], [29]; cited from earlier work

**Q.** For CCOC(=O)[C@]12CC[C@@H](NC(=S)Nc3ccc([N+](=O)[O-])cc3)C[C@@H]1C[C@@H](NC(=S)Nc1ccc([N+](=O)[O-])cc1)CC2 [Compound 12], which “effect of increasing incubation period from 10 to 120 minutes on anion transport” value (“effect of increasing incubation period” below) (YFP-CFBE cells; 10 μM) is on record?
**A.** increased noticeably

**Q.** And the “effect of increasing incubation period” value (YFP-CFBE cells; 50 μM)?
**A.** dramatic acceleration

**Q.** What about the “anion transport in YFP-CFBE cells (in words)” value (shortened to “anion transport … (in words)”) (YFP-CFBE cells) of the same molecule?
**A.** mediated anion transport

**Q.** What about the “concentration–response relationship in YFP-CFBE compared with YFP-FRT cells” value (YFP-CFBE cells) of the same molecule?
**A.** identical

**Q.** And the “anionophore concentration matching the effect of UTP (1 mM)” value (YFP-CFBE cells)?
**A.** 1 µM

**Q.** And the “effect of CaCC activation on anionophore-mediated anion transport” value (from here on “effect of CaCC activation”) (YFP-CFBE cells)?
**A.** either without effect or weakly additive

**Q.** What about the “effect of CaCCinh-A01 on transport by anionophore” value (from here on “effect of CaCCinh-A01 on transport”) (YFP-CFBE cells) of the same molecule?
**A.** not observed

**Q.** And the “effect of CFTRinh-172 on anion transport by anionophore” value (WT-CFTR-YFP-FRT cells)?
**A.** without effect

**Q.** With CCOC(=O)[C@]12CC[C@@H](NC(=S)Nc3cc(C(F)(F)F)cc(C(F)(F)F)c3)C[C@@H]1C[C@@H](NC(=S)Nc1cc(C(F)(F)F)cc(C(F)(F)F)c1)CC2 [Compound 15] as the molecule, how does the “anion transport … (in words)” value (YFP-CFBE cells) read?
**A.** mediated anion transport

**Q.** And the “concentration–response relationship in YFP-CFBE compared with YFP-FRT cells” value (YFP-CFBE cells)?
**A.** less efficacious

**Q.** What about the “anionophore concentration matching the effect of UTP (1 mM)” value (YFP-CFBE cells) of the same molecule?
**A.** 1 µM

**Q.** And the “effect of CaCC activation” value (YFP-CFBE cells)?
**A.** either without effect or weakly additive

**Q.** And the “effect of CaCCinh-A01 on transport” value (YFP-CFBE cells)?
**A.** not observed

**Q.** What about the “K a to Cl^– in DMSO” value [1] of the same molecule?
**A.** 2.4 × 10^3 M^–1

**Q.** What about the “effect of CFTRinh-172 on anion transport by anionophore” value (WT-CFTR-YFP-FRT cells) of the same molecule?
**A.** small, albeit significant, increase

**Q.** With FC(F)(F)c1ccc(NC(=S)NCCN(CCNC(=S)Nc2ccc(C(F)(F)F)cc2)CCNC(=S)Nc2ccc(C(F)(F)F)cc2)cc1 [Compound 18] as the molecule, how does the “K a to Cl^– in DMSO” value [1] read?
**A.** 9.6 × 10^2 M^–1

**Q.** With FC(F)(F)c1cc(NC(=S)NCCN(CCNC(=S)Nc2cc(C(F)(F)F)cc(C(F)(F)F)c2)CCNC(=S)Nc2cc(C(F)(F)F)cc(C(F)(F)F)c2)cc(C(F)(F)F)c1 [Compound 19] as the molecule, how does the “effect of increasing incubation period” value (YFP-CFBE cells; 10 μM) read?
**A.** increased noticeably

**Q.** What about the “effect of increasing incubation period” value (YFP-CFBE cells; 50 μM) of the same molecule?
**A.** increased noticeably

**Q.** What about the “anion transport … (in words)” value (YFP-CFBE cells) of the same molecule?
**A.** mediated anion transport

**Q.** And the “concentration–response relationship in YFP-CFBE compared with YFP-FRT cells” value (YFP-CFBE cells)?
**A.** similar

**Q.** And the “anionophore concentration matching the effect of UTP (1 mM)” value (YFP-CFBE cells)?
**A.** 1 µM

**Q.** What about the “effect of CaCC activation” value (YFP-CFBE cells) of the same molecule?
**A.** strongly additive

**Q.** What about the “effect of CaCCinh-A01 on transport” value (YFP-CFBE cells) of the same molecule?
**A.** direct inhibitory effect

**Q.** And the “K a to Cl^– in DMSO” value [1]?
**A.** 4.4 × 10^3 M^–1

**Q.** And the “effect of CFTRinh-172 on anion transport by anionophore” value (WT-CFTR-YFP-FRT cells)?
**A.** inhibited the activity
